Drawing on patent US20260250251A1, “HETEROCYCLIC COMPOUNDS AS PI3Ka INHIBITORS” (Pikavation Therapeutics, Inc., priority 2022, published 2026), this text covers IC50 for 23 compounds.

In test [1] the test system is SKBR3 (PIK3CA WT) cells, pSer473 AKT. Put plainly: pS473 AKT assay in SKBR3 cells. The class given is cell-based. Particulars: Homo sapiens, SK-BR-3, treated 2 h, read-out: SKBR3_IC50. As for the experimental part:
(§1) SKBR3 (PIK3CA WT), MCF7 (PIK3CA E545K), and T47D (PIK3CA H1047R) cells were cultured using 10-cm petri dishes with recommended medium. One day before the assay, cells were seeded in 96-well plates. After overnight incubation, cells were treated with different concentrations of PI3Kα inhibitors for 2 h. Cells were then fixed using 4% paraformaldehyde at room temperature for 20 min. Cells were aspirated with 4% paraformaldehyde, and washed using 1× regular phosphate buffered saline 3 times, 5 min each. Any residual phosphate buffered saline was aspirated and cells were blocked using 10% goat serum containing 1% bovine serum albumin and 0.3% Triton X-100 at room temperature for 1 h. Without any additional washing, primary antibodies (rabbit anti-pSer473 AKT) were diluted using blocking buffer and added at a final volume of 50 microliter per well. Assay plates with primary antibodies were maintained overnight at 4° C. Cells were washed using 1× regular phosphate buffered saline 3 times, 5 min each. After the final wash, cells were incubated with horseradish peroxidase-conjugated secondary antibodies (goat Anti-rabbit IgG) and diluted using the same blocking buffer at room temperature for 1 h. Cells were then washed thoroughly using 1× regular phosphate buffered saline 3 times, 5 min each, and any residual phosphate buffered saline was aspirated. Super-Signal ELISA Pico Chemiluminescent Substrate was then added at a final volume of 100 microliter per well. Plates were read on a i3x Multi-Mode Microplate Reader and IC50 values calculated using GraphPad Prism software.
(§2) Results of the assay described above are presented in Table A. “++++” indicates an IC50 less than 1000 nM; “+++” indicates an IC50 greater than or equal to 1000 nM but less than 5000 nM; “++” indicates an IC50 greater than or equal to 5000 nM but less than 10000 nM; and “+” indicates an IC50 greater than or equal to 10000 nM.

Test [2] concerns T47D (PIK3CA H1047R) cells, pSer473 AKT. Briefly: pS473 AKT assay in T47D cells. The settings on record: Homo sapiens, treated 2 h, read-out: T47D_IC50. The class given is cell-based. As for the experimental part:
as §1, §2

pIC50: −log10 of the molar value. A value given as a limit tells only on which side of the number the result lay.

Regarding `Nc1nn2c3c(cc(NC(=O)c4cc(F)cc(C(F)(F)F)c4)c(Oc4cc(F)ccc4Cl)c13)CN(C1CC1)C2=O` [Example 71, N-(2-Amino-3-(2-chloro-5-fluorophenoxy)-7-cyclopropyl-8-oxo-7,8-dihydro-6H-pyrazolo[4,5,1-ij]quinazolin-4-yl)-3-fluoro-5-(trifluoromethyl)benzamide], the pIC50 in test [1] and in test [2] was > 6.00 in each case.

As for `Cn1nc(N)c2c(Oc3cc(F)ccc3Cl)c(NC(=O)c3cc(F)cc(C(F)(F)F)c3)cc(C#CC3CCOC3)c21` (stereo not shown) [Example 41, N-(3-Amino-4-(2-chloro-5-fluorophenoxy)-1-methyl-7-((tetrahydrofuran-3-yl)ethynyl)-1H-indazol-5-yl)-3-fluoro-5-(trifluoromethyl)benzamide], the figures for the pIC50 in test [1] and in test [2] were 5.30 to 6.00 and > 6.00, respectively.

Consider `Nc1nn2c3c(cc(NC(=O)c4cc(F)cc(C(F)(F)F)c4)c(Oc4cc(F)ccc4Cl)c13)NC(=O)C2` [Example 32, N-(6-Amino-7-(2-chloro-5-fluorophenoxy)-2-oxo-2,3-dihydro-1H-pyrazolo[1,5,4-de]quinoxalin-8-yl)-3-fluoro-5-(trifluoromethyl)benzamide], for which the pIC50 in test [1] and in test [2] was > 6.00 throughout.

`Cn1nncc1-c1cc(NC(=O)c2cc(F)cc(C(F)(F)F)c2)c(Oc2cc(F)ccc2Cl)c2c(N)nn(C)c12` [Example 30, N-(3-Amino-4-(2-chloro-5-fluorophenoxy)-1-methyl-7-(1-methyl-1H-1,2,3-triazol-5-yl)-1H-indazol-5-yl)-3-fluoro-5-(trifluoromethyl)benzamide]: the pIC50 in test [1] and in test [2] was > 6.00 each time.

Take `Nc1n[nH]c2c(CO)cc(NC(=O)c3cc(F)cc(C(F)(F)F)c3)c(Oc3cc(F)ccc3Cl)c12` [Example 23, N-(3-Amino-4-(2-chloro-5-fluorophenoxy)-7-(hydroxymethyl)-1H-indazol-5-yl)-3-fluoro-5-(trifluoromethyl)benzamide]: the pIC50 in test [1] and in test [2] was > 6.00 each time.

Consider `Nc1n[nH]c2c(-c3ccccc3)cc(NC(=O)c3cc(F)cc(C(F)(F)F)c3)c(Oc3cc(F)ccc3Cl)c12` [Example 17, N-(3-Amino-4-(2-chloro-5-fluorophenoxy)-7-phenyl-1H-indazol-5-yl)-3-fluoro-5-(trifluoromethyl)benzamide], for which the figures for the pIC50 in test [1] and in test [2] were 5.30 to 6.00 and > 6.00, respectively.

Turning to `Cc1cc(NC(=O)c2cc(F)cc(C(F)(F)F)c2)c(Oc2cc(F)ccc2Cl)c2c(N)n[nH]c12` [Example 13, N-(3-Amino-4-(2-chloro-5-fluorophenoxy)-7-methyl-1H-indazol-5-yl)-3-fluoro-5-(trifluoromethyl)benzamide], the pIC50 in test [1] and in test [2] was > 6.00 each time.

`Nc1nn(CC(=O)N2CCOCC2)c2ccc(NC(=O)c3cc(F)cc(C(F)(F)F)c3)c(Oc3cc(F)ccc3Cl)c12` [Example 10, N-(3-Amino-4-(2-chloro-5-fluorophenoxy)-1-(2-morpholino-2-oxoethyl)-1H-indazol-5-yl)-3-fluoro-5-(trifluoromethyl)benzamide]: the pIC50 in test [1] was 5.30 to 6.00; in test [2], > 6.00.

For the compound `Cn1nc(N)c2c(Oc3cc(F)ccc3Cl)c(NC(=O)c3cc(F)cc(C(F)(F)F)c3)cc(C#CC3CC3)c21` [Example 42, N-(3-Amino-4-(2-chloro-5-fluorophenoxy)-7-(cyclopropylethynyl)-1-methyl-1H-indazol-5-yl)-3-fluoro-5-(trifluoromethyl)benzamide], the figures for the pIC50 in test [1] and in test [2] were 5.30 to 6.00 and > 6.00, respectively.

Turning to `Cn1nc(N)c2c(Oc3cc(F)ccc3Cl)c(NC(=O)c3cc(F)cc(C(F)(F)F)c3)cc(-c3ccc(C(N)=O)cc3)c21` [Example 27, N-(3-Amino-7-(4-carbamoylphenyl)-4-(2-chloro-5-fluorophenoxy)-1-methyl-1H-indazol-5-yl)-3-fluoro-5-(trifluoromethyl)benzamide], the pIC50 in test [1] was 5.30 to 6.00; in test [2], > 6.00.

On to `CCNC(=O)c1cc(NC(=O)c2cc(F)cc(C(F)(F)F)c2)c(Oc2cc(F)ccc2Cl)c2c(N)nn(C)c12` [Example 65, 3-Amino-4-(2-chloro-5-fluorophenoxy)-N-ethyl-5-(3-fluoro-5-(trifluoromethyl)benzamido)-1-methyl-1H-indazole-7-carboxamide], for which the pIC50 in test [1] and in test [2] was > 6.00 each time.

As for `Cn1nc(N)c2c(Oc3cc(F)ccc3Cl)c(NC(=O)c3cc(F)cc(Cl)c3)cc(Cl)c21` [Example 60, N-(3-Amino-7-chloro-4-(2-chloro-5-fluorophenoxy)-1-methyl-1H-indazol-5-yl)-3-chloro-5-fluorobenzamide], the pIC50 in test [1] and in test [2] was > 6.00 each time.

Take `Cn1nc(N)c2c(Oc3cc(F)ccc3Cl)c(NC(=O)c3cc(F)cc(C(F)(F)F)c3)cc(CC#N)c21` [Example 31, N-(3-Amino-4-(2-chloro-5-fluorophenoxy)-7-(cyanomethyl)-1-methyl-1H-indazol-5-yl)-3-fluoro-5-(trifluoromethyl)benzamide]: the pIC50 in test [1] and in test [2] was > 6.00 each time.

For the compound `Cn1nc(N)c2c(Oc3cc(F)ccc3Cl)c(NC(=O)c3cc(F)cc(C(F)(F)F)c3)cc(CCC#N)c21` [Example 59, N-(3-Amino-4-(2-chloro-5-fluorophenoxy)-7-(2-cyanoethyl)-1-methyl-1H-indazol-5-yl)-3-fluoro-5-(trifluoromethyl)benzamide], the pIC50 in test [1] and in test [2] was > 6.00 in each case.

As to `Cn1nc(N)c2c(Oc3cc(F)ccc3Cl)c(NC(=O)c3cc(F)cc(C(F)(F)F)c3)cc(-c3cncnc3)c21` [Example 29, N-(3-Amino-4-(2-chloro-5-fluorophenoxy)-1-methyl-7-(pyrimidin-5-yl)-1H-indazol-5-yl)-3-fluoro-5-(trifluoromethyl)benzamide], the pIC50 in test [1] is 5.30 to 6.00; in test [2], > 6.00.

In the case of `Cn1nc(N)c2c(Oc3cc(F)ccc3Cl)c(NC(=O)c3csc4ccccc34)cc(Cl)c21` [Example 63, N-(3-Amino-7-chloro-4-(2-chloro-5-fluorophenoxy)-1-methyl-1H-indazol-5-yl)benzo[b]thiophene-3-carboxamide], the pIC50 in test [1] is 5.30 to 6.00; in test [2], > 6.00.

For `Nc1nnc2ccc(NC(=O)c3cc(F)cc(C(F)(F)F)c3)c(Oc3cc(F)ccc3Cl)n12` [Example 20, N-(3-Amino-5-(2-chloro-5-fluorophenoxy)-[1,2,4]triazolo[4,3-a]pyridin-6-yl)-3-fluoro-5-(trifluoromethyl)benzamide], the pIC50 in test [1] is 5.30 to 6.00; in test [2], > 6.00.

Regarding `Nc1nn(CCN2CCC2)c2c(Cl)cc(NC(=O)c3cc(F)cc(C(F)(F)F)c3)c(Oc3cc(F)ccc3Cl)c12` [Example 56, N-(3-Amino-1-(2-(azetidin-1-yl)ethyl)-7-chloro-4-(2-chloro-5-fluorophenoxy)-1H-indazol-5-yl)-3-fluoro-5-(trifluoromethyl)benzamide], the figures for the pIC50 in test [1] and in test [2] were 5.30 to 6.00 and > 6.00, respectively.

Regarding `Nc1nn2c3c(cc(NC(=O)c4cc(F)cc(C(F)(F)F)c4)c(Oc4cc(F)ccc4Cl)c13)CNC(=O)C2` [Example 36, N-(2-Amino-3-(2-chloro-5-fluorophenoxy)-8-oxo-6,7,8,9-tetrahydro-[1,4]diazepino[6,7,1-hi]indazol-4-yl)-3-fluoro-5-(trifluoromethyl)benzamide], the pIC50 in test [1] and in test [2] was > 6.00 in each case.

For the compound `Nc1nn2c3c(cc(NC(=O)c4cc(F)cc(C(F)(F)F)c4)c(Oc4cc(F)ccc4Cl)c13)-c1ccccc1C2` [Example 70, N-(4-Amino-3-(2-chloro-5-fluorophenoxy)-7H-pyrazolo[4,5,1-de]phenanthridin-2-yl)-3-fluoro-5-(trifluoromethyl)benzamide], the pIC50 is ≤ 5.00 in test [1] and > 6.00 in test [2].

In the case of `CC(=O)n1nc(N)c2c(Oc3cc(F)ccc3Cl)c(NC(=O)c3cc(F)cc(C(F)(F)F)c3)cc(Br)c21` [Example 82, N-(1-Acetyl-3-amino-7-bromo-4-(2-chloro-5-fluorophenoxy)-1H-indazol-5-yl)-3-fluoro-5-(trifluoromethyl)benzamide], the pIC50 in test [1] was 5.30 to 6.00; in test [2], > 6.00.

On to `Nc1n[nH]c2ccc(NC(=O)c3cc(F)cc(C(F)(F)F)c3)c(Oc3cc(F)ccc3Cl)c12` [Example 1, N-(3-Amino-4-(2-chloro-5-fluorophenoxy)-1H-indazol-5-yl)-3-fluoro-5-(trifluoromethyl)benzamide], for which the pIC50 in test [1] and in test [2] was > 6.00 throughout.

As for `Cn1nc(N)c2c(Oc3cc(F)ccc3Cl)c(NC(=O)c3cc(F)cc(C(F)(F)F)c3)cc(C#CC3CCCCN3)c21` (stereo not shown) [Example 78, N-(3-Amino-4-(2-chloro-5-fluorophenoxy)-1-methyl-7-(piperidin-2-ylethynyl)-1H-indazol-5-yl)-3-fluoro-5-(trifluoromethyl)benzamide], the pIC50 in test [1] was 5.30 to 6.00; in test [2], > 6.00.
